Data as given in patent US20110045086A1, “Steroid Nebuliser Formulation” (BREATH LTD, priority 2008, published 2011).

Legend:
Format in all cases: physicochemical
[1] = dry Sympatec PSD analysis (particle size distribution); settings: for Particle Size, cumulative distribution Q3 X10 / Particle Size, cumulative distribution Q3 X50 / Particle Size, cumulative distribution Q3 X90: dry Sympatec PSD, after isolation / pre-storage sample
From the text: Particle size or particle diameter as used herein can be suitably determined by laser diffraction based methods, for example as described in ISO Standard 13320-1. Laser diffraction particle sizing apparatus such as the Malvern Mastersizer 2000™ can be used.

[2] = microscope imaging / SEM of particles; settings: for largest particles or clusters observed (microscope imaging / SEM): after supercritical CO2 isolation; for particle size in suspension prior to isolation (microscope imaging): partially agglomerated particles, before supercritical CO2 isolation
[3] = storage at 20% relative humidity for 48 hours (DVS, DSC, PSD, SEM); settings: for Particle Size, cumulative distribution Q3 X10 / Particle Size, cumulative distribution Q3 X50 / Particle Size, cumulative distribution Q3 X90: dry Sympatec PSD, post-storage sample; for DSC trace of the stored sample / variation of particle size after storage (PSD): post-storage; for weight change during storage (DVS mass plot): storage at 20% RH for 48 hours
Experimental: In order to evaluate the effect of humidity on prolonged storage processed BDP hydrate was subjected to 20% relative humidity (RH) for 48 hours.
The sample recovered after storage was analysed by DSC, TGA, PSD and SEM.
In order to evaluate the effect of humidity on prolonged storage anhydrous BDP was subjected to 20% relative humidity (RH) for 48 hours. The pre-storage sample was characterized by TGA, DSC, PSD and SEM analysis.
The sample recovered after storage was analyzed by DSC, PSD and SEM.

[4] = after supercritical CO2 isolation

Row | largest particles by dry Sympatec PSD analysis ([1]; after supercritical CO2 isolation, bimodal distribution) | Particle Size, cumulative distribution Q3 X10 [1] [μ] | Particle Size, cumulative distribution Q3 X50 [1] [μ] | Particle Size, cumulative distribution Q3 X90 [1] [μ] | largest particles or clusters observed (microscope imaging / SEM) [2] | particle size in suspension prior to isolation (microscope imaging) [2] | size of larger clusters or agglomerates by dry Sympatec PSD analysis [1, 4] [μm] | size of most particles by dry Sympatec PSD analysis [1, 4] [μm] | Particle Size, cumulative distribution Q3 X10 ([3]; 20% RH for 48 hours) [μ] | Particle Size, cumulative distribution Q3 X50 ([3]; 20% RH for 48 hours) [μ] | Particle Size, cumulative distribution Q3 X90 ([3]; 20% RH for 48 hours) [μ] | DSC trace of the stored sample ([3]; 20% RH for 48 hours) | time to steady state in DVS mass plot ([3]; storage at 20% RH) | Structure (SMILES) | variation of particle size after storage (PSD) ([3]; 20% RH for 48 hours) | weight change during storage (DVS mass plot) [3] | stability on prolonged storage ([3]; 20% RH for 48 hours, compared with anhydrous BDP)
1 | up to 150 μm | 1.26 | 12.58 | 61.27 | up to 100 μm | up to 5 μm |  |  |  |  |  |  |  | CCC(=O)OCC(=O)[C@@]1(OC(=O)CC)[C@@H](C)C[C@H]2[C@@H]3CCC4=CC(=O)C=C[C@]4(C)[C@@]3(Cl)[C@@H](O)C[C@@]21C [Comparative Example 1] |  |  | 
2 |  | 0.84 | 3.58 | 8.76 | up to 10 μm | up to 5 μm | > 20 | ~4 |  |  |  |  |  | CCC(=O)OCC(=O)[C@@]1(OC(=O)CC)[C@@H](C)C[C@H]2[C@@H]3CCC4=CC(=O)C=C[C@]4(C)[C@@]3(Cl)[C@@H](O)C[C@@]21C [Comparative Example 2] |  |  | 
3 |  | 0.43 | 1.10 | 2.24 |  |  |  |  | 0.42 | 1.07 | 2.10 | formation of BDP hydrate |  | CCC(=O)OCC(=O)[C@@]1(OC(=O)CC)[C@@H](C)C[C@H]2[C@@H]3CCC4=CC(=O)C=C[C@]4(C)[C@@]3(Cl)[C@@H](O)C[C@@]21C [anhydrous BDP, anhydrous beclomethasone diproprionate] | no significant variation of particle size | considerable weight changes | 
4 |  | 0.51 | 1.35 | 3.17 |  |  |  |  | 0.51 | 1.37 | 2.95 | no variation in the thermal behavior | about 1500 minutes | CCC(=O)OCC(=O)[C@@]1(OC(=O)CC)[C@@H](C)C[C@H]2[C@@H]3CCC4=CC(=O)C=C[C@]4(C)[C@@]3(Cl)[C@@H](O)C[C@@]21C.O [BDP hydrate] | no significant variation of particle size | considerable weight loss due to partial dehydration | higher stability on prolonged storage than anhydrous BDP
